Data: the supplement of paper PMC11208160

Experiment: recombinant barcode read abundance after kanamycin selection (control-corrected) (log10(CPM+1)); higher = more efficient recombination; sequences stand for … in AGTGCAGAGAAAATCGGCCAGTTTTCTCTGCCTGCAGTCCGCATGCCGT…AGATTTATGCAGCGGACTGCCTTTCTCCCAAAGTGATAAACCGGACAGTATCATGGACCGGTTTTCCCGGTAATCCGTATTTGCAAGGTTGGTTTCACT; site = the 11-nt target
Outline: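 Values are log10(CPM+1) from a pooled E. coli screen of targets paired with IS621 bridge RNA target-binding loops. Recombination efficiency here means counts per million of recombinant-junction barcodes, averaged and control-corrected. Plates were chloramphenicol/ampicillin LB agar for the control and chloramphenicol/ampicillin/kanamycin with 0.1 mM IPTG, two replicates each.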
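Further: IS621 recombinase and bridge RNA in Escherichia coli cells.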

Sequence	recombinant barcode read abundance (log10)
GGTGGGGCTTGGGTTCTAACCTGTTGCTG (site GGTGGGGCTCA)	2.24
GGTGGGGCTTGGGTTCTAACCTGTTGCTG (site GGTTGAGCTCA)	0.536
GGTGGTCCTTGGGTTCTAACCTGTTGCCT (site GGTGGTCCTAG)	1.36
GGTGGTCCTTGGGTTCTAACCTGTTGCCT (site GGTTGTCCTAG)	0.178
GGTTACCCTTGGGTTCTAACCTGTTGCGG (site GGTAACCCTCC)	0.716
GGTTACCCTTGGGTTCTAACCTGTTGCGG (site GGTCACCCTCC)	1.62
GGTTACCCTTGGGTTCTAACCTGTTGCGG (site GGTGACCCTCC)	0.115
GGTTACCCTTGGGTTCTAACCTGTTGCGG (site GGTTACCCTCC)	2.08
GGTTAGTCTTGGGTTCTAACCTGTTGCCG (site ACGGCTACTAA)	0.147
GGTTAGTCTTGGGTTCTAACCTGTTGCCG (site GGTTAGTCTCG)	0.363
GGTTGAGCTTGGGTTCTAACCTGTTGCTG (site GGTGGGGCTCA)	0.0323
GGTTGAGCTTGGGTTCTAACCTGTTGCTG (site GGTTGAGCTCA)	0.642
GGTTGGCCTTGGGTTCTAACCTGTTGCGG (site GGTTGACCTCC)	0.257
GGTTGGCCTTGGGTTCTAACCTGTTGCGG (site GGTTGCCCTCC)	0.0622
GGTTGGCCTTGGGTTCTAACCTGTTGCGG (site GGTTGGCCTCC)	0.624
GGTTGGCCTTGGGTTCTAACCTGTTGCGG (site GGTTGTCCTCC)	0.15
GGTTGGGCTTGGGTTCTAACCTGTTGCAG (site GGCTGGGCTCG)	0.0851
GGTTGGGCTTGGGTTCTAACCTGTTGCAG (site GGTTGGGCTCT)	1.46
GTAACCTCTTGGGTTCTAACCTGTTGCCT (site GTAACCTCTAG)	1.92
GTAACCTCTTGGGTTCTAACCTGTTGCCT (site GTAACCTCTCG)	1.15
GTAACCTCTTGGGTTCTAACCTGTTGCCT (site GTAACCTCTGG)	0.0952
GTAACCTCTTGGGTTCTAACCTGTTGCCT (site GTAACCTCTTG)	0.0654

Sequence	recombinant barcode read abundance (log10)
GTAAGAACTTGGGTTCTAACCTGTTGCAG (site GTAAGAACTCT)	1.78
GTAAGAACTTGGGTTCTAACCTGTTGCAG (site GTAAGTCCTCT)	0.544
GTAAGGACTTGGGTTCTAACCTGTTGCGG (site CAGTCAGCTAG)	0.115
GTAAGGACTTGGGTTCTAACCTGTTGCGG (site GTAAGGACTCC)	2.25
GTAAGTTCTTGGGTTCTAACCTGTTGCCT (site GAAAGTTCTAG)	0.049
GTAAGTTCTTGGGTTCTAACCTGTTGCCT (site GCAAGTTCTAG)	0.258
GTAAGTTCTTGGGTTCTAACCTGTTGCCT (site GGAAGTTCTAG)	0.0929
GTAAGTTCTTGGGTTCTAACCTGTTGCCT (site GTAAGTTCTAG)	1.11
GTAATAGCTTGGGTTCTAACCTGTTGCAT (site ATAATAGCTAT)	0.695
GTAATAGCTTGGGTTCTAACCTGTTGCAT (site GTAATAGCTAT)	2
GTAATCCCTTGGGTTCTAACCTGTTGCCG (site GTAATCCCTCG)	1.76
GTAATCCCTTGGGTTCTAACCTGTTGCCG (site GTAATCCCTTG)	0.572
GTAATTGCTTGGGTTCTAACCTGTTGCCT (site GTAAATGCTAG)	0.184
GTAATTGCTTGGGTTCTAACCTGTTGCCT (site GTAACTGCTAG)	0.519
GTAATTGCTTGGGTTCTAACCTGTTGCCT (site GTAAGTGCTAG)	0.0962
GTAATTGCTTGGGTTCTAACCTGTTGCCT (site GTAATTGCTAG)	0.918
GTACAATCTTGGGTTCTAACCTGTTGCAG (site CATAGTCCTTG)	0
GTACAATCTTGGGTTCTAACCTGTTGCAG (site GTACAATCTCT)	0.632
GTACGACCTTGGGTTCTAACCTGTTGCAC (site AACAAGACTAG)	0.189
GTACGACCTTGGGTTCTAACCTGTTGCAC (site GTACGACCTGT)	1.91
GTACGTACTTGGGTTCTAACCTGTTGCCT (site ATACGTACTAG)	0.0704
GTACGTACTTGGGTTCTAACCTGTTGCCT (site CTACGTACTAG)	0.283

Sequence	recombinant barcode read abundance (log10)
GTACGTACTTGGGTTCTAACCTGTTGCCT (site GTACGTACTAG)	0.586
GTACGTACTTGGGTTCTAACCTGTTGCCT (site TTACGTACTAG)	0.777
GTACGTCCTTGGGTTCTAACCTGTTGCGT (site GTACGTCCTAA)	0.0527
GTACGTCCTTGGGTTCTAACCTGTTGCGT (site GTACGTCCTAC)	2.36
GTACGTCCTTGGGTTCTAACCTGTTGCGT (site GTACGTCCTAG)	0.0549
GTACGTCCTTGGGTTCTAACCTGTTGCGT (site GTACGTCCTAT)	0.764
GTAGACCCTTGGGTTCTAACCTGTTGCCG (site GTAGACCCTCG)	2.32
GTAGACCCTTGGGTTCTAACCTGTTGCCG (site GTTGACCCTAG)	0.476
GTATCCGCTTGGGTTCTAACCTGTTGCCA (site CGGCTGCCTCC)	0.0649
GTATCCGCTTGGGTTCTAACCTGTTGCCA (site GTATCCGCTTG)	1.55
GTATGAGCTTGGGTTCTAACCTGTTGCCA (site GTATGAGCTTG)	0.906
GTATGAGCTTGGGTTCTAACCTGTTGCCA (site TTATAAGCTTG)	0.0331
GTATGAGCTTGGGTTCTAACCTGTTGCGG (site GTATGAGCTCC)	2.06
GTATGAGCTTGGGTTCTAACCTGTTGCGG (site GTATGTGCTCC)	0.255
GTATGCTCTTGGGTTCTAACCTGTTGCGT (site GTATCCTCTAT)	0.11
GTATGCTCTTGGGTTCTAACCTGTTGCGT (site GTATGCTCTAC)	1.17
GTCAACCCTTGGGTTCTAACCTGTTGCGG (site GTAAACCCTCC)	0.886
GTCAACCCTTGGGTTCTAACCTGTTGCGG (site GTCAACCCTCC)	2.33
GTCAAGACTTGGGTTCTAACCTGTTGCCG (site GTCAAGACTCG)	1.94
GTCAAGACTTGGGTTCTAACCTGTTGCCG (site GTCAAGACTTG)	0.462
GTCAAGCCTTGGGTTCTAACCTGTTGCTA (site GCCAAACCTTA)	0.345
GTCAAGCCTTGGGTTCTAACCTGTTGCTA (site GTCAAGCCTTA)	0.705

Sequence	recombinant barcode read abundance (log10)
GTCACGCCTTGGGTTCTAACCTGTTGCAT (site GACACACCTAT)	0.0978
GTCACGCCTTGGGTTCTAACCTGTTGCAT (site GTCACGCCTAT)	0.588
GTCACTACTTGGGTTCTAACCTGTTGCCG (site GTCACTACTCG)	0.74
GTCACTACTTGGGTTCTAACCTGTTGCCG (site GTCCCTACTCG)	0.0387
GTCACTACTTGGGTTCTAACCTGTTGCCG (site GTCGCTACTCG)	0.0416
GTCACTACTTGGGTTCTAACCTGTTGCCG (site GTCTCTACTCG)	0.127
GTCAGCCCTTGGGTTCTAACCTGTTGCTG (site GACAGCCCTCA)	0.379
GTCAGCCCTTGGGTTCTAACCTGTTGCTG (site GTCAGCCCTCA)	0.255
GTCATGTCTTGGGTTCTAACCTGTTGCCT (site GCCATGTCTAG)	0.781
GTCATGTCTTGGGTTCTAACCTGTTGCCT (site GTCATGTCTAG)	1.45
GTCATGTCTTGGGTTCTAACCTGTTGCTC (site AGACGACCTCC)	0.0394
GTCATGTCTTGGGTTCTAACCTGTTGCTC (site GTCATGTCTGA)	1.23
GTCCAGACTTGGGTTCTAACCTGTTGCCT (site GTACAGACTAG)	0.92
GTCCAGACTTGGGTTCTAACCTGTTGCCT (site GTCCAGACTAG)	1.97
GTCCAGACTTGGGTTCTAACCTGTTGCCT (site GTGCAGACTAG)	0.508
GTCCAGACTTGGGTTCTAACCTGTTGCCT (site GTTCAGACTAG)	0.228
GTCCAGCCTTGGGTTCTAACCTGTTGCAC (site CAAAGAGCTCA)	0.291
GTCCAGCCTTGGGTTCTAACCTGTTGCAC (site GTCCAGCCTGT)	2.18
GTCCCCTCTTGGGTTCTAACCTGTTGCCT (site GTCACCTCTAG)	0.0601
GTCCCCTCTTGGGTTCTAACCTGTTGCCT (site GTCCCCTCTAG)	1.74
